# What was measured:
# [1] = system: myometrial smooth muscle cells (MSMC); experiment: Realtime PCR mRNA expression in treated MSMC; format: cell-based, human
# Method: Isolation and Culture of Leiomyoma and Myometrial Smooth Muscle Cells. […] Only untreated tissues were used for isolation of LSMC and MSMC. […] LSMC and MSMC were cultured in 6-well plates at an approximate density of 10^6 cells/well in DMEM-supplemented media containing 10% FBS. After reaching visual confluence, the cells were washed in serum-free media and incubated for 24 hrs under serum-free, phenol red-free condition (Chegini, N et al. Mol Hum Reprod, 2002, 8:1071-8).
# Quantitative RealTime PCR. Realtime PCR was utilized for verification of 10 differentially expressed and regulated genes identified in leiomyoma and myometrium as well as LSMC and MSMC from untreated and GnRHa-treated cohorts. The selection of these genes was based not only on their expression values (up or downregulation), but classification and biological functions important to leiomyoma growth and regression, regulation by ovarian steroids, GnRHa and TGF-β. They are IL-11, CITED2, Nur77, EGR3, TGIF, TIEG, p27, p57, GAS-1 and GPRK5 representing cytokines, transcription factors, cell cycle regulators and signal transduction.
# Determination of TGF-β1 on global gene expression in LSMC and MSMC. All the materials utilized for this study including isolation of leiomyoma and myometrial cells are identical to those described in detail above. To determine the effect of TGF-β1 on global gene expression in LSMC and MSMC, the cells were cultured in 6-well plates at approximate density of 10^6 cells/well in DMEM-supplemented media containing 10% FBS. […] The cells were then treated with 2.5 ng/ml of TGF-β1 (R & D System, Minneapolis, […].) for 2, 6 and 12 hours. […] The cells were washed and then treated with TGF-β1 (2.5 ng/ml) for 2 hours. Parallel experiments using untreated cells were used as controls including an additional control for TGF-β type II receptor antisense and sense experiments.
# Total cellular RNA was isolated from LSMC- and MSMC-treated and untreated controls and subjected to microarray analysis. To maintain standard and allow for comparative analysis, the GeneChips used in this study were utilized, simultaneously processed and their gene expression values were subjected to global normalization and transformation. Following these unsupervised assessments the coefficient of variation was calculated for each probe set across all the chips used in this study, and the selected gene expression values of this study were independently subjected to supervised learning including R programming analysis and ANOVA with false discovery rate selected at p<0.001 (Moustakas, A. Immunol Lett, 2002, 82:85-91; Verrecchia, F. et al. J Biol Chem, 2001, 276:17058-17062). The genes identified in these cohorts were analyzed for functional annotation and visualized using Database for Annotation, Visualization, and Integrated Discovery (DAVID) software with integrated GoCharts. Following the analysis, we selected 12 of the differentially expressed and regulated genes, including 10 identified and validated in leiomyoma and myometrium from untreated and GnRHa-treated cohorts, as well as LSMC and MSMC treated in vitro with GnRHa, for validation in response to TGF-β-time dependent action using Realtime PCR. They include IL-11, EGR3, CITED2, TIEG, TGIF, Nur77, p27, p57, GAS-1 and GPRK5. In addition, the expression of Runx1 and Runx2, transcription factors that interact with TGF-β receptor signaling pathways (Zavadil, J. et al. Proc Natl Acad Sci USA, 2001, 98:6686-6691), was validated in LSMC and MSMC as well as in leiomyoma and myometrium from GnRHa-treated and untreated cohorts. Detail description of the materials and methods for Realtime PCR as well as data analysis is provided in Chegini, N. et al. J Soc Gynecol Investig, 2003, 10:161-71.
# Isolation and Culture of Leiomyoma and Myometrial Smooth Muscle Cells. Leiomyoma and myometrial smooth muscle cells (LSMC and MSMC) were isolated and cultured as previously described (Chegini, N. et al. Mol Hum Reprod, 2002, 8:1071-1078). […]
# [2] = system: leiomyoma; conditions: GnRHa treated group compared to secretory phase tissues
# Source text: (§1) Western Blot Analysis and Immunohistochemical Localization. For immunoblotting, total protein was isolated from small portions of GnRHa-treated and untreated leiomyoma and myometrium as well as the GnRHa-treated and untreated cells as previously described (Ding, L et al. J Clin Endocrinol Metab, 2004, 89:5549-5557; Chegini, N et al. Mol Cell Endocrinol, 2003, 209:9-16). Following determination of the tissue homogenates and cell lysates protein content an equal amount of sample proteins were subjected to SDS-PAGE and transferred to polyvinyldiene difluoride (PVDF) membrane. The blots were incubated with anti-TIEG antibody, kindly provided by Dr. Thomas Spelsberg, Department of Biochemistry, Mayo Clinic, Rochester, Minn. (Johnsen, S A et al. Oncogene, 2002, 21:5783-90), TGIF, EGR3, p27, p57, Nur77 and Gas1 antibodies purchased from Santa Cruz Biochemical (Santa Cruz, Calif.), IL-11 antibodies purchased from R & D system (Minneapolis, Minn.) for 1 hr at room temperature. […]
# (§2) Western Blot Analysis and Immunohistochemical Localization. […] The homogenates' protein contents were determined, and an equal amount was subjected to SDS-PAGE and transferred to polyvinyldiene difluoride membrane.
# [3] = system: myometrium; conditions: GnRHa treated group compared to secretory phase tissues
# Source text: as §1, §2
# [4] = GnRHa 0.1 μM, 2, 6 and 12 hours
structure (smiles),measurement,setting,value
"CCNC(=O)[C@@H]1CCCN1C(=O)[C@H](CCCNC(=N)N)NC(=O)[C@H](CC(C)C)NC(=O)[C@@H](CC(C)C)NC(=O)[C@H](Cc1ccc(O)cc1)NC(=O)[C@H](CO)NC(=O)[C@H](Cc1c[nH]c2ccccc12)NC(=O)[C@H](Cc1c[nH]cn1)NC(=O)[C@@H]1CCC(=O)N1 [GnRHa, leuprolide acetate]",CITED2 expression in MSMC,[1]; [4],biphasic effect
same,GPRK5 expression in MSMC,[1]; [4],inhibits
same,Runx1 expression in MSMC,[1]; [4],time-dependent inhibition
same,Runx2 expression in MSMC,[1]; [4],time-dependent inhibition
same,CCN2 mRNA expression in MSMC,"[1]; GnRHa 0.1 μM, 2, 6 and 12 hrs",inhibited
same,CCN3 mRNA expression in MSMC,"[1]; GnRHa 0.1 μM, 2, 6 and 12 hrs",inhibited
same,CCN4 mRNA expression in MSMC,"[1]; GnRHa 0.1 μM, 2, 6 and 12 hrs",inhibited
same,S100A4 mRNA expression in MSMC,"[1]; GnRHa 0.1 μM, 2, 6 and 12 hrs",inhibited
same,fibulin-1C mRNA expression in MSMC,"[1]; GnRHa 0.1 μM, 2, 6 and 12 hrs",inhibited
same,FMOD expression in MSMC,"[1]; GnRHa 0.1 μM, 2 and 6 hrs",no significant effect
same,FMOD expression in MSMC,"[1]; GnRHa 0.1 μM, 12 hrs",inhibited
same,IL-11 expression in MSMC,"[1]; GnRHa 0.1 μM, within 2 to 6 hours, control levels after 12 hours",increased
same,Nur77 expression in MSMC,"[1]; GnRHa 0.1 μM, subsequently declined to control levels",rapid induction
same,FMOD immunoreactive intensity in leiomyoma,[2],reduction
same,FMOD immunoreactive intensity in myometrium,[3],reduction

# From US20080300147A1, “Detection and Treatment of Fibrotic Disorders” (priority 2004, published 2008)
